According to patent US8853373B2, “Method and reagent for gene sequence analysis” (Hitachi, Ltd., priority 2009, dated 2014):

Columns and labels:
Format in all cases: biochemical
[1] = test system: nucleotides G, C, and A (Sequence GA, Sequence CG, Sequence AG); assay: Exclusivity of the other nucleotides (G, C, and A), elongation luminescence; details: for Exclusivity of the other nucleotides (G, C, and A): CG, AG, luminescence normalized to dCTP, dGTP, dTTP as 1
Method: (§1) Incorporation into nucleic acid was evaluated as follows. First, one of the above sequences was used as a target. Next, the primer was made to complementarily bind to the target. Then, an elongation experiment was carried out using the respective nucleic acid substrates for that sample. The synthesized nucleic acid substrate requires an affinity (complementary characteristics) with nucleotide T, and exclusivity of the other nucleotides (G, C, and A). The affinity with nucleotide T was evaluated using the Sequence TG and the primer. The exclusivity of the other nucleotides (G, C, and A) was evaluated using the respective Sequence GA, Sequence CG, and Sequence AG, and the primer. In addition, Sequence 5T was used for the evaluation of an ability of continuous incorporation into nucleotide T.
(§2) A sequencing method using a stepwise chemical reaction is described below. First, 35 μL of ultrapure water, 5 μL of oligo DNA (10 μM) of analysis object (target), and 5 μL of a primer (20 μM) were mixed with 5 μL of a hybridization buffer (10 mM Tris-Acetate, 20 mM Mg-Acetate, pH 7.75) (a sample solution: the final volume was 50 μL). Then, the sample solution was heated at 94° C. for 20 seconds, and reacted at a Tm temperature of the primer for 2 minutes. After that, 0.5 μL, (target: […], primer: […]) of this sample solution, 20 of a luminescence reagent which is designated in Condition 2 of Table 1, and 0.2 μL of a polymerase enzyme (the final concentration: 0.05 U/4) were mixed to prepare a reaction reagent (the final volume was 20.7 μL). To this reaction reagent was added 0.4 μL of 100 μM nucleic acid substrate (the final concentration 2 μM). When nucleic acid elongation occurs, bioluminescence derived from pyrophosphate of the elongation reaction product can be observed. The reaction has a luminescence peak a few seconds after the reaction initiation. […] This luminescence peak value is virtually proportional to the amount of generated pyrophosphate. Measurement of the peak value enables a degree of nucleic acid elongation to be estimated.
Next, with regard to the respective synthetic substrates, the exclusivity of the other nucleotides (G, C, and A) was assessed using each of Sequence GA, Sequence CG, and Sequence AG and the primer. […] In addition, a background luminescence component of the respective substrates was compensated by taking its difference into account in a manner similar to that of the preceding figures.

[2] = test system: 5 consecutive nucleotides of T (Sequence 5T); assay: Ability of incorporation into consecutive nucleotides of T (Sequence 5T), three consecutive injections; details: 5 consecutive nucleotides; final concentration 4 μM; E1 = luminescence of 2nd and 3rd injections / total of 1st to 3rd
Method: as §1, §2
Next, by using Sequence 5T, the ability of incorporation of the respective synthetic substrates into consecutive nucleotides of T was evaluated by the following procedure. The reaction reagent was prepared by using Sequence 5T as a target oligo in the same manner as in the case of evaluation of elongation of one nucleotide as described before. In this case, a target oligo 111 and a primer 112 form a complementary strand binding as depicted in FIG. 11(1). Due to the above, when dATP is dispensed into this reaction reagent as a substrate, five molecules of the substrate are consecutively elongated per target molecule as a primer having the substrate at the 3′ end 113, thereby releasing five molecules of pyrophosphate. If the elongation for all the five nucleotides is not completed, a portion of the nucleotide T remains in a single-stranded state. Because of this, when substrate dATP is dispensed again, the portion is elongated only in the case where a portion of incomplete elongation remains. Therefore, the release of pyrophosphate can be detected as luminescence. […] In addition, substrate dCTP, which is complementary to nucleotide G 114, was subsequently dispensed twice to detect luminescence. […]

[3] = test system: nucleotide T (Sequence TG); assay: Affinity between synthetic substrates and nucleotide T (one-nucleotide elongation, Sequence TG, luminescence); details: compared with dATPαS / other substrates
Method: as §1
A sequencing method using a stepwise chemical reaction is described below. […] After that, 0.5 μL, (target: […], primer: […]) of this sample solution, 20 of a luminescence reagent which is designated in Condition 2 of Table 1, and 0.2 μL of a polymerase enzyme (the final concentration: 0.05 U/4) were mixed to prepare a reaction reagent (the final volume was 20.7 μL). […] The reaction has a luminescence peak a few seconds after the reaction initiation. […] This luminescence peak value is virtually proportional to the amount of generated pyrophosphate. […]

DNA Sequence S2 = assay: Sequence analysis by stepwise chemical reaction (pyrogram), PPDK system, Condition 4; details: DNA Sequence S2 (3 consecutive nucleotides)
Method: Therefore, a sequence having 3 consecutive nucleotides of T was analyzed for comparison. Analyzed DNA Sequence S2 and a primer P3 are described below.
Of note is that Sequence P3 represents a primer sequence. This primer can complementarily bind to the underlined portion of the above DNA Sequence S2. FIGS. 16 to 20 show the results of a sequence analysis. In addition, the reagent conditions were listed together in the following Table 3.
In this experiment, an enzyme system which converts PPi into ATP has employed an enzyme system in which PPi and AMP are converted into ATP by PPDK as described in the conventional technique (Patent Literature 4). The items of the figure are identical to those of FIG. 15. At the bottom of the respective figures, the injected nucleotide types are designated. At the top, the nucleotide types which have been incorporated into a complementary DNA sequence of analysis object are designated. The substrate was injected in the order of “bases A, T, C, and G”, and 7 cycles were analyzed. As indicated in the target sequence, in this analysis, two regions (Cycle 4 and Cycle 7) having 3 consecutive nucleotides of A incorporated are present. Because of this, a difference in the ability of continuous incorporation of a nucleic acid substrate that is used as a nucleotide A can be assessed. Hereinafter, the details are described.
First, three kinds of the substrates (A3d, dATPαS, and C^7dATP) having the final concentration of 2 μM were used. The results of a sequence analysis will be described (FIGS. 16 to 20). […] At the time of dispensing A (surrounded by the circle ◯) which represented the injected nucleotide type, A3d was used. […] Accordingly, as the signal corresponding to A at the first cycle indicated, background luminescence was observed. Due to this phenomenon, the luminescence signal corresponding to nucleotide A constantly included the increased background luminescence. The symbol • in the figure denotes elongation luminescence corresponding to a nucleotide sequence of a sample. In contrast, the major luminescence without corresponding to the nucleotide sequence is represented by the symbol ∇. […] At the time of dispensing A (surrounded by the circle ◯) which represented the injected nucleotide type, dATPαS was used. The resulting pyrogram and the nucleotide sequence of a sample were compared. The symbol • in the figure denotes elongation luminescence corresponding to a nucleotide sequence of a sample. In contrast, the major luminescence without corresponding to the nucleotide sequence is represented by the symbol ∇. […] At the time of dispensing A (surrounded by the circle ◯) which represented the injected nucleotide type, C^7dATP was used. […] Accordingly, as the signal corresponding to A at the first cycle indicated, big background luminescence was observed. Due to this phenomenon, the luminescence signal corresponding to nucleotide A constantly included the increased background luminescence. The symbol x in the figure denotes just a background luminescence signal. The symbol • denotes elongation luminescence corresponding to a nucleotide sequence of a sample. However, the symbol (•) denotes inclusion of both elongation-derived luminescence and background luminescence. In contrast, the major luminescence without corresponding to the nucleotide sequence is represented by the symbol ∇.

luciferase = luciferase (Photinus pyralis, UniProt P08659); assay: Evaluation of substrate specificity for luciferase (luminescence on dispensing the substrate)
luciferase, sequence (P08659 whole entry, species assumed): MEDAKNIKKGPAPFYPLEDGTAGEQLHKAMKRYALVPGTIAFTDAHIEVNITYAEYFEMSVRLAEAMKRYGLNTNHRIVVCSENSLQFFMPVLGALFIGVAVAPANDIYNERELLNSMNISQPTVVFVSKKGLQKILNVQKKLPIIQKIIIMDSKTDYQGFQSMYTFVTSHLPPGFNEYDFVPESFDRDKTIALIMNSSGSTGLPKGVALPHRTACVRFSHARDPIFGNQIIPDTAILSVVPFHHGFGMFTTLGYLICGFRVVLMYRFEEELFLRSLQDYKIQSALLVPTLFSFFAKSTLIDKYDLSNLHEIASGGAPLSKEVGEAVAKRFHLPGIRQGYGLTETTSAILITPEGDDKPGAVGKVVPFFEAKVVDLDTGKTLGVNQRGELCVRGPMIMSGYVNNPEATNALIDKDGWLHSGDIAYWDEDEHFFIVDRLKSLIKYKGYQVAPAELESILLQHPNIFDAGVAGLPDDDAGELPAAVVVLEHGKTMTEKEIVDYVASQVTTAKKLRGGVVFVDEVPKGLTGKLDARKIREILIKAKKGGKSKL
Method: In respect to the nucleic acid substrates synthesized, whether or not the substrates became a substrate for luciferase was evaluated by the following procedure. First, a luminescence reagent designated in Condition 1 of Table 1 was prepared.
Next, a reaction solution was prepared using 20 μL of this luminescence reagent, and 0.2 μL of a nucleic acid substrate of evaluation subject was injected. Then, luminescence emitted at this occasion was estimated. FIG. 6 is a graph showing the amount of luminescence when ATP, dATP, C^7dATP, and dATPαS are each dispensed as a substrate. The abscissa (C) indicates a final concentration of the compound in a reaction reagent. For example, when 0.2 μl of 1 μM substrate is dispensed, the final concentration is about 0.01 μM. An amount of luminescence (U) indicated in the ordinate was plotted by normalizing the amount of luminescence at 0.01 μM of ATP as 1. From this graph, the amount of luminescence (U) is found to be proportional to the final concentration (C). Because of this, as a substrate specificity (or substrate reactivity) for luciferase, the value (S) indicating the amount of luminescence per unit concentration is defined as described below. Substrate specificity (S)≡Amount of luminescence (U)/Final concentration (C)[μM]×0.01 (In this Definition, the Substrate Specificity of ATP is Normalized as 1).
The four points designated in the left side of the graph indicate each substrate specificity (S) of ATP, dATP, dATPαS, and C^7dATP. For a sequencing method using a stepwise chemical reaction represented by pyrosequencing, the amount of ATP generated from pyrophosphate produced in elongation of one nucleotide is equivalent to the amount of a target present in a reaction solution when all of the targets have been elongated. In addition, elongation of a plurality of nucleotides causes the amount to be multiplied by the number of the nucleotides. Generally speaking, the amount of a nucleic acid substrate which should be dispensed per reaction for sequencing requires about 100 times the amount of the target for analysis. This is because a sequenced region may sometimes contain about 10 consecutive identical nucleotides; and a reaction solution for this sequencing method has a substrate-degrading enzyme together, so that the nucleic acid elongation and substrate degradation are competed. Shortage of the substrates causes incomplete elongation, so that the following sequence analysis cannot be carried out. […] As a countermeasure against it, the substrate having about 100 times the target amount which has been generally used is preferably dispensed per reaction.
In this Example, the synthesized nucleic acid substrates were purified by liquid chromatography. However, removal of pyrophosphate that had been incorporated during the synthesis may be insufficiently carried out only by liquid chromatography-mediated purification. At that occasion, the present inventors treated the synthesized nucleic acid substrates by a pyrophosphate-degrading enzyme (PPase) to decompose the pyrophosphate. Specifically, the synthesized nucleic acid substrate was diluted in a reaction solution (100 mM Tris-Acetate, 0.5 mM EDTA, 5 mM Mg-Acetate, 1 mM DTT, pH 7.5) at a concentration of 500 μM. Then, PPase was added at 0.2 mU/μL, and the mixture was reacted at 30° C. for 30 minutes, which caused degradation of pyrophosphate in the solution. This method represents one example. […]

**Q.** Which “Exclusivity of the other nucleotides (G, C, and A)” value (from here on “Exclusivity … (G, C, and A)”) [1] does the source give for `Nc1ncnc2c1c(/C=C/C(=O)NCCc1ccccc1)cn2[C@H]1CC(O)[C@@H](COP(=O)(O)OP(=O)(O)OP(=O)(O)O)O1` (some centres unmarked) [A3a] here?
**A.** exhibits luminescence for all the three kinds of nucleotides

**Q.** What does the source list for `Nc1ncnc2c1c(/C=C/C(=O)NCCc1ccccn1)cn2[C@H]1CC(O)[C@@H](COP(=O)(O)OP(=O)(O)OP(=O)(O)O)O1` (some centres unmarked) [A3b]?
**A.** Rate of Incomplete Elongation after the First Injection (%) [2]: 11.2 ± 2.9%; Exclusivity of the other nucleotides (G, C, and A) [1]: excellent exclusivity

**Q.** For `CCCNC(=O)/C=C/c1cn([C@H]2CC(O)[C@@H](COP(=O)(O)OP(=O)(O)OP(=O)(O)O)O2)c2ncnc(N)c12` (some centres unmarked) [A3c], which “Reaction rate of nucleic acid elongation (luminescence profile)” value [3] is on record?
**A.** higher reaction rate

**Q.** What about the “Exclusivity of nucleotide G” value [1] of the same compound?
**A.** a little poor exclusivity

**Q.** What about the “Exclusivity … (G, C, and A)” value [1] of the same compound?
**A.** generally good

**Q.** How did the “Exclusivity … (G, C, and A)” value [1] turn out when `NCCCCCCNC(=O)CCc1cn([C@H]2CC(O)[C@@H](COP(=O)(O)OP(=O)(O)OP(=O)(O)O)O2)c2ncnc(N)c12` (some centres unmarked) [B4] was run?
**A.** exhibits luminescence

**Q.** Which “Sequence analysis result as substitute for dATP” value (DNA Sequence S2; final concentration 2 μM, 7 cycles) does the source give for `Nc1ncnc2c1ccn2[C@H]1C[C@H](O)[C@@H](COP(=O)(O)OP(=O)(O)OP(=O)(O)O)O1` [C^7dATP, 7-deaza-2′-deoxyadenosine triphosphate] here?
**A.** substrate-derived background luminescence was large, so that the precise sequence identification was found to be difficult

**Q.** What about the “Sequence analysis result as substitute for dATP” value (DNA Sequence S2; final concentration 4 μM) of the same compound?
**A.** incomplete elongation for the nucleotide G at Cycle 5 was not improved

**Q.** And the “Substrate specificity for luciferase compared with that of dATPαS” value (luciferase; FIG. 7)?
**A.** about two orders higher

**Q.** What about the “Substrate specificity (S) for luciferase, relative to that of ATP” value (luciferase; amount of luminescence per unit concentration, substrate specificity of ATP normalized as 1) of the same compound?
**A.** about 1/250
